Target: T1, CRF receptor (Rattus norvegicus, UniProt P35353)
T1 construct: The frontal cortex of rats was homogenized in a 50 mM Tris hydrochloric acid buffer; from tissue; host or cells: rat frontal cortex membranes
T1 sequence (P35353 24-415): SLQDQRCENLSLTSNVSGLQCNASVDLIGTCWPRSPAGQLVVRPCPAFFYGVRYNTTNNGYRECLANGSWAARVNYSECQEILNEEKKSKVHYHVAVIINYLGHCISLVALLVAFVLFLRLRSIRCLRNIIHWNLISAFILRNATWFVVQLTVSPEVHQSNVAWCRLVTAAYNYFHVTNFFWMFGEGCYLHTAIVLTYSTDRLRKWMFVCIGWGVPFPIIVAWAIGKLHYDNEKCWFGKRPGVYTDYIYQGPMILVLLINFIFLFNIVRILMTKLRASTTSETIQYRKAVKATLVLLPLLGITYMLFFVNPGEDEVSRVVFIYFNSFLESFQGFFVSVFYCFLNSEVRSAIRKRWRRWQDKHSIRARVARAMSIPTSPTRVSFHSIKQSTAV
Assay: CRF receptor binding experiment (125I-CRF, rat frontal cortex membranes)
Settings: frontal cortex membranes of rats 0.3 mg protein/ml; 125I-CRF 0.2 nM; 2 hours at 25° C.; read-out: IC50 (concentration of the test agent for controlling 50% of the binding of 125I-CRF)
Experimental: Experimental Example [CRF receptor binding experiment]
As a receptor preparation, the frontal cortex membranes of rats were employed.
As a ^125I labeled ligand, ^125I-CRF was employed.
The binding reaction employing a ^125I labeled ligand was carried out in the following method as described in The Journal of Neuroscience, 7, 88 (1987).
Preparation of the receptor membrane preparations: The frontal cortex of rats was homogenized in a 50 mM Tris hydrochloric acid buffer (pH 7.0) containing 10 mM MgCl2 and 2 mM EDTA, and subsequently, the homogenized mixture was centrifuged at 48,000×g. The precipitate was washed once with the Tris hydrochloric acid buffer. The precipitate was suspended in a 50 mM tris hydrochloric acid buffer (pH 7.0) containing 10 mM MgCl2, 2 mM EDTA, 0.1% bovine serum albumin, and 100 kalliklein unit/ml aprotinin, to produce a membrane preparation.
CRF receptor binding experiment: The membrane preparation (0.3 mg protein/ml), ^125I-CRF (0.2 nM), and a test agent were reacted for 2 hours at 25° C. […] After completion of the washing, the radioactivity of the filter paper was measured by a gamma counter.
The binding quantity obtained when the reaction was carried out in the presence of 1 μM CRF was determined as nonspecific binding of ^125I-CRF, while the difference between the total binding and the nonspecific binding was determined as a specific binding. […]

- IC50: ≤ 0.1 µM
Structure (SMILES): CSc1cc(C(C)C)ccc1-n1cc(C)c2c(N3CC=C(C(N)=O)CC3)nc(C)nc21 [Com. No. 07, 4-(4-carbamoyl-1,2,3,6-tetrahydropyridin-1-yl)-2,5-dimethyl-7-(4-isopropyl-2-methylthiophenyl)-7H-pyrrolo[2,3-d]pyrimidine]
